Key:
[1] = tested on: Mycolicibacterium smegmatis; experiment: Antimycobacterial activity against Mycobacterium smegmatis MC2 155 assessed as inhibition of respiratory ATP synthesis by measuring ATP level at 4 times MIC measured after 3 hrs by luciferase reporter gene assay (reference value: 158.3%); type: functional, str. MC2 155; design: scale not given: the % may be the effect or the level left
[2] = tested on: Mycolicibacterium smegmatis; experiment: Antimycobacterial activity against Mycobacterium smegmatis MC2 155 assessed as ATP leakage by measuring extracellular ATP at 4 times MIC measured at 3 hrs post dose by luciferase reporter gene assay; type: functional, str. MC2 155
[3] = tested on: Mycolicibacterium smegmatis; experiment: Antimycobacterial activity against Mycobacterium smegmatis MC2 155 assessed as ATP leakage by measuring extracellular ATP at 4 times MIC measured at 6 hrs post dose by luciferase reporter gene assay; type: functional, str. MC2 155
[4] = tested on: Mycolicibacterium smegmatis; experiment: Antimycobacterial activity against Mycobacterium smegmatis MC2 155 assessed as ATP leakage by measuring extracellular ATP at 0.5 times MIC measured at 24 hrs post dose by luciferase reporter gene assay; type: functional, str. MC2 155
[5] = Half life in rat liver microsomes at 1 uM preincubated for 5 mins followed by NADPH addition measured by LC-MS/MS method; type: ADME
[6] = tested on: Mycolicibacterium smegmatis; experiment: Antimycobacterial activity against Mycobacterium smegmatis MC2 155 assessed as ATP leakage by measuring intracellular ATP at 0.5 times MIC measured at 1 hr of post dose by luciferase reporter gene assay; type: functional, str. MC2 155
[7] = biological target: CYP2C19 (Homo sapiens, UniProt P33261); experiment: Inhibition of CYP2C19 in human liver microsomes at 10 uM using omeprazole as substrate preincubated for 5 min followed by NADPH addition measured after 10 mins by LC-MS/MS method relative to control; type: ADME; settings: probe omeprazole
CYP2C19, sequence (P33261 whole entry): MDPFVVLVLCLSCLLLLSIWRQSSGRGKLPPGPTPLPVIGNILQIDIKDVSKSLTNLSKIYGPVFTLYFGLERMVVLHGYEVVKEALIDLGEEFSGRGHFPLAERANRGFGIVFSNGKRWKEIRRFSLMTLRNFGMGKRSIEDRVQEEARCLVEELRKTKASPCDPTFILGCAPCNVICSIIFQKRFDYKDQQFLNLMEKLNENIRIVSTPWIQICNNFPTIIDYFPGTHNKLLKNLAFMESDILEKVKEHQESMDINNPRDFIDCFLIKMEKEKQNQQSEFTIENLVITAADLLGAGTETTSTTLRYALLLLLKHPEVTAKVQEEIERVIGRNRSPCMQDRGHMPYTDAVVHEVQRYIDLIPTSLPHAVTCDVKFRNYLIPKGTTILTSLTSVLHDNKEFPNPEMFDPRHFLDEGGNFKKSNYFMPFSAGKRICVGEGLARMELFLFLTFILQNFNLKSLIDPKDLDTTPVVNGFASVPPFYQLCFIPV

[8] = tested on: Mycolicibacterium smegmatis; experiment: Antimycobacterial activity against Mycobacterium smegmatis MC2 155 assessed as ATP leakage by measuring intracellular ATP at MIC measured at 6 hrs post dose by luciferase reporter gene assay; type: functional, str. MC2 155
[9] = tested on: Mycolicibacterium smegmatis; experiment: Antimycobacterial activity against Mycobacterium smegmatis MC2 155 assessed as ATP leakage by measuring intracellular ATP at 0.5 times MIC measured immediatey after addition of compounds by luciferase reporter gene assay; type: functional, str. MC2 155
[10] = tested on: Mycolicibacterium smegmatis; experiment: Antimycobacterial activity against Mycobacterium smegmatis MC2 155 assessed as ATP leakage by measuring intracellular ATP at 2 times MIC measured at 1 hr of post dose by luciferase reporter gene assay; type: functional, str. MC2 155
[11] = tested on: Mycolicibacterium smegmatis; experiment: Antimycobacterial activity against Mycobacterium smegmatis MC2 155 assessed as ATP leakage by measuring intracellular ATP at 0.5 times MIC measured at 3 hrs post dose by luciferase reporter gene assay; type: functional, str. MC2 155
[12] = tested on: Mycolicibacterium smegmatis; experiment: Antimycobacterial activity against Mycobacterium smegmatis MC2 155 assessed as ATP leakage by measuring extracellular ATP at 2 times MIC measured immediatey after addition of compounds by luciferase reporter gene assay; type: functional, str. MC2 155
[13] = tested on: Mycolicibacterium smegmatis; experiment: Antimycobacterial activity against Mycobacterium smegmatis MC2 155 assessed as ATP leakage by measuring extracellular ATP at MIC measured at 3 hrs post dose by luciferase reporter gene assay; type: functional, str. MC2 155
[14] = tested on: Mycolicibacterium smegmatis; experiment: Antimycobacterial activity against Mycobacterium smegmatis MC2 155 assessed as ATP leakage by measuring intracellular ATP at 2 times MIC measured at 3 hrs post dose by luciferase reporter gene assay; type: functional, str. MC2 155
[15] = tested on: Mycolicibacterium smegmatis; experiment: Antimycobacterial activity against Mycobacterium smegmatis MC2 155 assessed as ATP leakage by measuring extracellular ATP at MIC measured at 1 hr of post dose by luciferase reporter gene assay; type: functional, str. MC2 155
[16] = tested on: Mycolicibacterium smegmatis; experiment: Antimycobacterial activity against Mycobacterium smegmatis MC2 155 assessed as ATP leakage by measuring extracellular ATP at 2 times MIC measured at 1 hr of post dose by luciferase reporter gene assay; type: functional, str. MC2 155
[17] = tested on: Mycolicibacterium smegmatis; experiment: Antimycobacterial activity against Mycobacterium smegmatis MC2 155 assessed as ATP leakage by measuring extracellular ATP at 0.5 times MIC measured at 6 hrs post dose by luciferase reporter gene assay; type: functional, str. MC2 155
[18] = tested on: Mycolicibacterium smegmatis; experiment: Antimycobacterial activity against Mycobacterium smegmatis MC2 155 assessed as inhibition of respiratory ATP synthesis by measuring ATP level at 2 times MIC measured after 6 hrs by luciferase reporter gene assay (reference value: 212.7%); type: functional, str. MC2 155; design: scale not given: the % may be the effect or the level left
[19] = tested on: Mycolicibacterium smegmatis; experiment: Antimycobacterial activity against Mycobacterium smegmatis MC2 155 assessed as ATP leakage by measuring extracellular ATP at MIC measured at 6 hrs post dose by luciferase reporter gene assay; type: functional, str. MC2 155
[20] = tested on: Mycolicibacterium smegmatis; experiment: Antimycobacterial activity against Mycobacterium smegmatis MC2 155 assessed as ATP leakage by measuring extracellular ATP at MIC measured at 24 hrs post dose by luciferase reporter gene assay; type: functional, str. MC2 155
[21] = tested on: Mycolicibacterium smegmatis; experiment: Antimycobacterial activity against Mycobacterium smegmatis MC2 155 assessed as ATP leakage by measuring intracellular ATP at 0.5 times MIC measured at 6 hrs post dose by luciferase reporter gene assay; type: functional, str. MC2 155
[22] = tested on: Mycolicibacterium smegmatis; experiment: Antimycobacterial activity against Mycobacterium smegmatis MC2 155 assessed as ATP leakage by measuring intracellular ATP at 4 times MIC measured at 3 hrs post dose by luciferase reporter gene assay; type: functional, str. MC2 155
[23] = tested on: Mycolicibacterium smegmatis; experiment: Antimycobacterial activity against Mycobacterium smegmatis MC2 155 assessed as ATP leakage by measuring intracellular ATP at MIC measured at 1 hr of post dose by luciferase reporter gene assay; type: functional, str. MC2 155
[24] = tested on: Mycolicibacterium smegmatis; experiment: Antimycobacterial activity against Mycobacterium smegmatis MC2 155 assessed as ATP leakage by measuring extracellular ATP at 4 times MIC measured at 24 hrs post dose by luciferase reporter gene assay; type: functional, str. MC2 155
[25] = tested on: Mycolicibacterium smegmatis; experiment: Antimycobacterial activity against Mycobacterium smegmatis MC2 155 assessed as ATP leakage by measuring extracellular ATP at 0.5 times MIC measured at 3 hrs post dose by luciferase reporter gene assay; type: functional, str. MC2 155
[26] = tested on: Mycolicibacterium smegmatis; experiment: Antimycobacterial activity against Mycobacterium smegmatis MC2 155 assessed as ATP leakage by measuring extracellular ATP at 2 times MIC measured at 6 hrs post dose by luciferase reporter gene assay; type: functional, str. MC2 155
[27] = tested on: Mycolicibacterium smegmatis; experiment: Antimycobacterial activity against Mycobacterium smegmatis MC2 155 assessed as ATP leakage by measuring intracellular ATP at 4 times MIC measured at 6 hrs post dose by luciferase reporter gene assay; type: functional, str. MC2 155
[28] = tested on: Mycolicibacterium smegmatis; experiment: Antimycobacterial activity against Mycobacterium smegmatis MC2 155 assessed as ATP leakage by measuring intracellular ATP at MIC measured immediatey after addition of compounds by luciferase reporter gene assay; type: functional, str. MC2 155
[29] = tested on: Mycolicibacterium smegmatis; experiment: Antimycobacterial activity against Mycobacterium smegmatis MC2 155 assessed as ATP leakage by measuring intracellular ATP at MIC measured at 3 hrs post dose by luciferase reporter gene assay; type: functional, str. MC2 155
[30] = Cytotoxicity against human corneal fibroblasts assessed as reduction in ATP level measured after 4 hrs by Celltiter-Glo luminescent assay; type: toxicity, Corneal fibroblast
[31] = tested on: Mycolicibacterium smegmatis; experiment: Antimycobacterial activity against Mycobacterium smegmatis MC2 155 assessed as ATP leakage by measuring intracellular ATP at 0.5 times MIC measured at 24 hrs post dose by luciferase reporter gene assay; type: functional, str. MC2 155
[32] = tested on: Mycolicibacterium smegmatis; experiment: Antimycobacterial activity against Mycobacterium smegmatis MC2 155 assessed as ATP leakage by measuring extracellular ATP at 0.5 times MIC measured at 9 hrs post dose by luciferase reporter gene assay; type: functional, str. MC2 155
[33] = tested on: Mycolicibacterium smegmatis; experiment: Antimycobacterial activity against Mycobacterium smegmatis MC2 155 assessed as ATP leakage by measuring extracellular ATP at 2 times MIC measured at 3 hrs post dose by luciferase reporter gene assay; type: functional, str. MC2 155
[34] = tested on: Mycolicibacterium smegmatis; experiment: Antimycobacterial activity against Mycobacterium smegmatis MC2 155 assessed as ATP leakage by measuring extracellular ATP at 0.5 times MIC measured immediatey after addition of compounds by luciferase reporter gene assay by luciferase reporter gene assay by luciferase reporter gene assay; type: functional, str. MC2 155

| Structure (SMILES) | Activity [1] [%] | Activity [2] [%] | Activity [3] [%] | Activity [4] [%] | half-life at 1 µM [5] [min] | Activity [6] [%] | inhibition at 10 min, 10 µM [7] [%] | Activity [8] [%] | Activity [9] [%] | Activity [10] [%] | Activity [11] [%] | Activity [12] [%] | Activity [13] [%] | Activity [14] [%] | Activity [15] [%] | Activity [16] [%] | Activity [17] [%] | Activity [18] [%] | Activity [19] [%] | Activity [20] [%] | also measured |
| --- | --- | --- | --- | --- | --- | --- | --- | --- | --- | --- | --- | --- | --- | --- | --- | --- | --- | --- | --- | --- | --- |
| CCCN(CCC)CCCCOc1cc2oc3cc(OCCCCN(CCC)CCC)c(OC)c(CC=C(C)C)c3c(=O)c2c(O)c1CC=C(C)C | 4.6 | 91.1 | 83.5 | 53.6 | > 30 | 75.3 | 19.2 | 12 | 100 | 2.8 | 61 | 4 | 91.8 | 2.6 | 88.5 | 97.2 | 30.6 | 3.9 | 88 | 88.1 | Activity [21]: 69.4%; Activity [22]: 8.9%; Activity [23]: 11.5%; Activity [24]: 88%; Activity [25]: 39%; Activity [26]: 96.1%; Activity [27]: 16.5%; Activity [28]: 97.7%; Activity [29]: 8.2%; CC50 at 4 h [30]: 108 µM; Activity [31]: 46.4%; Activity [32]: 33.5%; Activity [33]: 97.4%; Activity [34]: 0% |
| COc1c(OCCCCN2CCOCC2)cc2oc3cc(OCCCCN4CCOCC4)c(CC=C(C)C)c(O)c3c(=O)c2c1CC=C(C)C | 26.8 | 55.3 | 91.3 | 47.5 | > 30 | 97.8 | 17 | 63.7 | 100 | 69.6 | 94.1 | 3 | 44.7 | 36.6 | 6.5 | 30.4 | 13.2 | 11 | 36.3 | 88.7 | Activity [21]: 86.8%; Activity [22]: 44.7%; Activity [23]: 93.5%; Activity [24]: 95.5%; Activity [25]: 5.9%; Activity [26]: 76.7%; Activity [27]: 6.7%; Activity [28]: 97.7%; Activity [29]: 55.3%; CC50 at 4 h [30]: > 150 µM; Activity [31]: 52.5%; Activity [32]: 26.5%; Activity [33]: 63.4%; Activity [34]: 0% |
| CCN(CC)CCCCOc1cc2oc3cc(OCCCCN(CC)CC)c(OC)c(CC=C(C)C)c3c(=O)c2c(O)c1CC=C(C)C | 2.6 | 97.5 | 96.7 | 66.7 | > 30 | 93.2 | 3 | 20.1 | 100 | 4.4 | 83.6 | 1.3 | 88 | 2.7 | 42.1 | 95.6 | 12.2 | 2.3 | 79.9 | 44.4 | Activity [21]: 87.8%; Activity [22]: 2.5%; Activity [23]: 57.9%; Activity [24]: 97.3%; Activity [25]: 16.4%; Activity [26]: 96.8%; Activity [27]: 3.3%; Activity [28]: 99.2%; Activity [29]: 12%; CC50 at 4 h [30]: 19.7 µM; Activity [31]: 33.3%; Activity [32]: 23.2%; Activity [33]: 97.3%; Activity [34]: 0% |

Source: ChEMBL document CHEMBL3872220, “Amphiphilic xanthones as a potent chemical entity of anti-mycobacterial agents with membrane-targeting properties” (Eur J Med Chem, 2016)
